Test results reported in patent publication US9169268B2, “Use of 7-alkoxy fangchinoline compounds in preventing, alleviating and/or treating depression” (Peking University, priority 2012, dated 2015).

Assays:
[1] = target: GSK-3β (Homo sapiens, UniProt P49841); test: GSK-3β activity assay (Z′-LYTE); type: biochemical; conditions: n = 3; read-out: Mean EC50 in the inhibition of GSK-3β activity
Procedure: The GSK-3β phosphorylation level was determined by using a Z′-LYTE assay (Life Technologies). The assay was performed in a 384-well plate. The wells of the testing plate were divided into blank control wells (without the enzyme), enzyme control wells (without the testing substance), and testing wells (with the enzyme and the testing substance at various concentrations). The inhibition rate of the testing substance is expressed as: inhibition %=(E−S)/(E−B)×100, wherein E is the average emission ratio of enzyme control wells; B is the average emission ratio of blank control wells; S is the emission ratio of the testing sample wells. The median effective concentration of each compound (EC50 μM) was calculated by using the resultant inhibition rate of each sample at various concentrations.

[2] = test system: chronic unpredictable stress (CUS) model in rats; test: Sucrose solution preference in CUS model in rats; type: in vivo; conditions: 7 days
Procedure: (§1) The chronic unpredictable stress model is usually used as a depression model. The experimental method is as follows. Stimulation includes forced swimming (10° C., 6 min), tail clamping (1 cm from the tail tip, 1 min), water deprivation (24 h), fasting (24 h), isolated housing (24 h), tail suspension (1 h), immobility (2 h), high-speed horizontal oscillation (120 times/min, 1 h), foot shock for 45 minutes (mean 1 mA, time course 1 s, once/min). These stressors were randomly scheduled over a one-week period and repeated throughout the 23-day experiment. The non-stress control group was housed under normal conditions. Time: between 9:00 a.m. and 2:00 p.m. Since Day 15, the animals in each group were daily intragastrically administered with the subject medicament and double distilled water based on body weight (blank group and CUS model group) respectively, 60 minutes before the stress. […] Behavior and sleep electroencephalogram analyses were carried out on Day 22-23 of the stress. On Day 21, 60 minutes after the final administration, a sucrose solution intake test was carried out and sleep electroencephalogram was recorded simultaneously. On Day 22, EPM and forced swimming tests were carried out.

[3] = test system: chronic unpredictable stress (CUS) model in rats; test: Autonomous movement in CUS model in rats; type: in vivo; conditions: 7 days
Procedure: as §1

[4] = test system: chronic unpredictable stress (CUS) model in rats; test: Elevated plus-maze (EPM) anxiety test in CUS model in rats; type: in vivo
Procedure: as §1

[5] = Serum AST and ALT in mice after 14 days of intragastric administration; type: in vivo; conditions: mouse, in vivo, 60 mg/kg/day
Procedure: Blood was collected from epicanthal, stood at room temperature for about 2 hours, and centrifuged for 12 minutes at 3000 r/min after coagulation. The serum was removed and centrifuged again. Alanine transaminase (ALT) and aspartate transaminase (AST) levels were determined

[6] = test system: chronic unpredictable stress (CUS) model in rats; test: Depression-like behaviors overall in CUS model in rats (forced swimming, sucrose preference, autonomous mobility); type: in vivo; conditions: doses of 30 and 60 mg/kg
Text: The chronic unpredictable stress model is usually used as a depression model. The experimental method is as follows. […] These stressors were randomly scheduled over a one-week period and repeated throughout the 23-day experiment. The non-stress control group was housed under normal conditions. Time: between 9:00 a.m. and 2:00 p.m. Since Day 15, the animals in each group were daily intragastrically administered with the subject medicament and double distilled water based on body weight (blank group and CUS model group) respectively, 60 minutes before the stress. Imipramine (intraperitoneally, IP) was adopted as a positive control. Behavior and sleep electroencephalogram analyses were carried out on Day 22-23 of the stress. On Day 21, 60 minutes after the final administration, a sucrose solution intake test was carried out and sleep electroencephalogram was recorded simultaneously. On Day 22, EPM and forced swimming tests were carried out. Result 1: […]

[7] = test system: chronic unpredictable stress (CUS) model in rats; test: Forced swimming test in chronic unpredictable stress (CUS) model in rats; type: in vivo; conditions: 7 days
Procedure: as §1

Sequence of GSK-3β (P49841 whole entry): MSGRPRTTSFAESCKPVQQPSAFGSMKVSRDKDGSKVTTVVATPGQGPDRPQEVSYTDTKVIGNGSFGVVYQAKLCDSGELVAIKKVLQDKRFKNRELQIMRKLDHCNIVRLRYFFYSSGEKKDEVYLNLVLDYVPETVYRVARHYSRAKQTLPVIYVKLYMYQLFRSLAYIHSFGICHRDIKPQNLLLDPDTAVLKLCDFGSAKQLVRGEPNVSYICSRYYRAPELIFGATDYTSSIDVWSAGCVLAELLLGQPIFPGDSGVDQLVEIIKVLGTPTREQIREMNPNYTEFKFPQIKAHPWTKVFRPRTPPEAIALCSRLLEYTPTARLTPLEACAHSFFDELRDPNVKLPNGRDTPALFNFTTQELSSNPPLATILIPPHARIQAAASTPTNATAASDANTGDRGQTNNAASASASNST

Molecule	melting point	EC50 [1]	Sucrose solution preference ([2]; 7.5 mg/kg intragastric daily)	Sucrose solution preference ([2]; 15 mg/kg intragastric daily)	Sucrose solution preference ([2]; 30 mg/kg intragastric daily)	Autonomous movement Distance ([3]; 7.5 mg/kg intragastric daily)	Autonomous movement Speed ([3]; 7.5 mg/kg intragastric daily)	Autonomous movement Distance ([3]; 15 mg/kg intragastric daily)	Autonomous movement Speed ([3]; 15 mg/kg intragastric daily)	Autonomous movement Distance ([3]; 30 mg/kg intragastric daily)	Autonomous movement Speed ([3]; 30 mg/kg intragastric daily)	Percentage of entries into open arms relative to total entries into arms ([4]; 7.5 mg/kg intragastric daily)	Percentage of residence time in open arms ([4]; 7.5 mg/kg intragastric daily)	Percentage of entries into open arms relative to total entries into arms ([4]; 15 mg/kg intragastric daily)	Percentage of residence time in open arms ([4]; 15 mg/kg intragastric daily)	Percentage of entries into open arms relative to total entries into arms ([4]; 30 mg/kg intragastric daily)	Percentage of residence time in open arms ([4]; 30 mg/kg intragastric daily)	ALT [5]	AST [5]	AST/ALT [5]	also measured
CCCCOc1c(OC)cc2c3c1Oc1cc4c(cc1OC)CCN(C)C4Cc1ccc(cc1)Oc1cc(ccc1OC)CC3N(C)CC2 (stereo not drawn) [Compound 7, 7-butoxy fangchinoline]	155 to 156 °C	2330 nM	70.7 ± 4.1 %	87.1 ± 3.5 %	86.3 ± 3.4^##,$$ %	8823.36 ± 673.14^##,$$ mm	29.41 ± 2.64^##,$$ mm/second	9586.43 ± 756.75^##,$$ mm	31.95 ± 4.02^##,$$ mm/second	11768.25 ± 903.41^##,$$ mm	39.23 ± 5.36^##,$$ mm/second	43.4 ± 2.6 %	54.7 ± 4.1^##,$$ %	47.9 ± 4.0 %	62.1 ± 3.4^##,$$ %	54.3 ± 5.6^##,$ %	61.5 ± 3.0^##,$$ %	82.4 ± 17.9 U/L	93.6 ± 17.8 U/L	1.14 ± 0.20	
COc1ccc2cc1Oc1ccc(cc1)CC1c3cc(c(OC)cc3CCN1C)Oc1c(OC)c(OC)c(OC)c3c1C(C2)N(C)CC3 (stereo not drawn) [5,7-dimethoxy-fangchinoline, reference compound]		> 10000 nM			53.7 ± 4.8%					1189.64 ± 315.84 mm	3.97 ± 1.48 mm/second					38.9 ± 1.8%	43.2 ± 4.1%				Sucrose solution preference ([2]; 60 mg/kg intragastric daily): 55.3 ± 4.2%; Autonomous movement Distance ([3]; 60 mg/kg intragastric daily): 936.47 ± 366.32 mm; Autonomous movement Speed ([3]; 60 mg/kg intragastric daily): 3.12 ± 1.42 mm/second; Percentage of entries into open arms relative to total entries into arms ([4]; 60 mg/kg intragastric daily): 37.2 ± 1.4%; Percentage of residence time in open arms ([4]; 60 mg/kg intragastric daily): 42.8 ± 4.8%; anti-anxiety-like effect ([4]; doses of 30 and 60 mg/kg): no anti-anxiety-like effect; amelioration effect on depression-like behaviors [6]: no amelioration effect
COc1cc(Br)c2cc1Oc1ccc(cc1)CC1c3cc(c(OC)cc3CCN1C)Oc1c(OC)c(OC)c(Br)c3c1C(C2)N(C)CC3 (stereo not drawn) [Compound 2, 5,14-dibromo-7-methoxy fangchinoline]	187 to 189 °C	2010 nM	72.5 ± 3.0 %	89.0 ± 4.6^##,$$ %	88.5 ± 3.1^##,$$ %	9031.41 ± 639.33^##,$$ mm	30.10 ± 3.88^##,$$ mm/second	10116.74 ± 746.48^##,$$ mm	33.72 ± 4.02^##,$$ mm/second	12062.32 ± 903.42^##,$$ mm	40.21 ± 5.36^##,$$ mm/second	45.1 ± 3.8 %	56.5 ± 3.0^##,$$ %	49.7 ± 4.0 %	63.6 ± 4.1^##,$$ %	56.2 ± 5.3^##,$$ %	64.5 ± 3.6^##,$$ %	87.2 ± 24.7 U/L	108.4 ± 17.4 U/L	1.24 ± 0.26	
5-bromo-7-ethoxy fangchinoline [Compound 4]			79.2 ± 3.4^##,$$ %	81.5 ± 4.7^##,$$ %	93.6 ± 3.2^##,$$ %	13257.21 ± 756.36^##,$$ mm	44.19 ± 2.64^##,$$ mm/second	13615.71 ± 743.43^##,$$ mm	45.39 ± 4.02^##,$$ mm/second	14362.26 ± 771.52^##,$$ mm	47.87 ± 5.36^##,$$ mm/second	54.2 ± 2.6^##,$ %	66.2 ± 3.4^##,$$ %	55.3 ± 4.0^##,$ %	69.5 ± 4.2^##,$$ %	59.7 ± 5.3^##,$$ %	68.6 ± 3.2^##,$$ %				Forced swimming Immobility time ([7]; 7.5 mg/kg intragastric daily): 134.3 ± 4.4^##,$$ seconds; Forced swimming Immobility time ([7]; 15 mg/kg intragastric daily): 96.1 ± 3.74^##,$$ seconds; Forced swimming Immobility time ([7]; 30 mg/kg intragastric daily): 60.5 ± 5.3^##,$$ seconds
CCOc1c(OC)c(Br)c2c3c1Oc1cc4c(cc1OC)CCN(C)C4Cc1ccc(cc1)Oc1cc(c(Br)cc1OC)CC3N(C)CC2 (stereo not drawn) [Compound 5, 5,14-dibromo-7-ethoxy fangchinoline]	186 to 188 °C	1260 nM	84.1 ± 3.3 %	86.0 ± 3.5^##,$$ %	91.5 ± 4.2^##,$$ %	13732.42 ± 732.45^##,$$ mm	45.77 ± 2.64^##,$$ mm/second	14003.63 ± 737.47^##,$$ mm	46.68 ± 4.02^##,$$ mm/second	14561.84 ± 807.52^##,$$ mm	48.54 ± 5.36^##,$$ mm/second							91.7 ± 15.5 U/L	101.5 ± 18.7 U/L		
CCCOc1c(OC)cc2c3c1Oc1cc4c(cc1OC)CCN(C)C4Cc1ccc(cc1)Oc1cc(ccc1OC)CC3N(C)CC2 (stereo not drawn) [Compound 6, 7-propoxy fangchinoline]	174.8 to 176.3 °C	1680 nM	79.45 ± 3.3 %	85.5 ± 3.6^##,$$ %	90.4 ± 4.3^##,$$ %	8940.78 ± 714.35^##,$$ mm	29.80 ± 2.64^##,$$ mm/second	11574.92 ± 732.36^##,$$ mm	38.58 ± 3.02^##,$$ mm/second	12566.27 ± 764.42^##,$$ mm	41.89 ± 4.36^##,$$ mm/second	47.0 ± 2.6 %	59.4 ± 3.3^##,$$ %	50.5 ± 3.2 %	64.1 ± 3.6^##,$$ %	57.3 ± 4.6^##,$$ %	66.0 ± 4.2^##,$$ %	92.3 ± 21.2 U/L	99.4 ± 21.1 U/L	1.08 ± 0.27	
COc1ccc2cc1Oc1ccc(cc1)CC1c3cc(c(OC)cc3CCN1C)Oc1c(OC)c(OC)c(Cl)c3c1C(C2)N(C)CC3 (stereo not drawn) [Compound 1, 5-chloro-7-methoxy fangchinoline]		3210 nM	69.6 ± 4.6 %	78.8 ± 4.0^##,$$ %	81.6 ± 3.7^##,$$ %	7581.17 ± 845.04^##,$$ mm	25.27 ± 2.38^##,$$ mm/second	9518.08 ± 704.12^##,$$ mm	31.73 ± 3.44^##,$$ mm/second	10347.64 ± 923.01^##,$$ mm	34.49 ± 3.75^##,$$ mm/second	41.2 ± 2.3 %	53.6 ± 4.6^##,$$ %	46.7 ± 3.4 %	60.8 ± 4.0^##,$$ %	53.9 ± 3.5^##,$$ %	60.6 ± 3.7^##,$$ %	80.9 ± 21.4 U/L	117.7 ± 16.1 U/L	1.45 ± 0.21	
